This is an account of results in patent publication US12630555B2, “Substituted pyrrolo[1,2-a]quinoxalin-4(5H)-ones as CX3CR1 antagonists” (Drexel University, priority 2017, dated 2026).

Several values for one entry are separate records, joined by “and”; a condition that tells them apart may be missing. Equal values may be shown once. Read-outs that look alike come from different tables or passages of the source.

Data set [1] deals with MDA-231 cells. In words: Enumeration of CTCs in blood of tumor-bearing mice after mobilization with AMD-3100. Type of data set: in vivo. Conditions: for mobilization of cancer cells (CTCs) into the blood: compound alone, tumor-bearing mice. The protocol: Blood was withdrawn by cardiac puncture. AMD-3100 was purchased from Selleckchem (S8030) dissolved in PBS at 1 mg/ml and at −20° C. before use. Tumor-bearing animals were anesthetized as described above and 200-250 μl of systemic blood was collected at the designated time points and transferred in K2EDTA tubes. Blood samples were placed on ice, diluted using a saline buffer (0.5% BSA, 2% EDTA in PBS) at a 1:8 ratio and then filtered through a 70 μm cell strainer immediately prior to achieve a label-free, microfluidic isolation of CTCs. For enumeration, the Captor® system (Clearbridge Biomedics, Singapore) was used, which allows visualization of individual CTCs trapped into crescent-shape microwells. Following complete flowing of the diluted blood, the CTChip® was transferred to the stage of an inverted fluorescent microscope and all trapped CTCs were counted. For the recovery of fully viable CTCs we used the ClearCell® FX system (Clearbridge Biomedics, Singapore), which employs the CTChip® FR1 to isolate cancer cells from blood cells based on size, deformability and inertia through a Dean Flow Fractionation process.
CTCs were lysed on the same microfluidic chip used for capture using an ice-cooled RNA lysis buffer (Norgen Bioteck Corp.). […] Genespecific primers and probe sets were purchased from Applied Biosystem.
Cancer cells in the blood are a dynamic pool that constantly fluctuates as cells enter circulation upon being dislodged from tumors, reseed additional sites or perish to anoikis if they fail to do so. This makes determining the time spent by cancer cells in the blood problematic. A major hurdle for these types of studies is the limited ability to monitor the timing of CTCs' entry into and egress from the blood during steady-state conditions. To circumvent these issues, cancer cells were acutely mobilized from tumors in the skeleton and soft-tissues in mice—above steady-state counts—and then thereafter the blood was sampled at specific intervals, reasoning that a time-dependent decline of the number of CTCs in the blood would result from cancer cells seeding back to tissues and dying in circulation. […] When spreading via the systemic circulation, cancer cells become susceptible to anoikis and extending the time spent in the blood increases the odds of incurring this form of apoptotic cell death.

Data set [2] concerns disseminated tumors. Nature of the data set: Additional metastatic lesions after AMD-3100 mobilization. Type of data set: in vivo, mice. The protocol: Complementary studies were conducted in mice harboring experimental metastases as detected at one week post-grafting, and left either untreated or treated at the second and third week with AMD-3100, alone or in combination with Compound XXII (FIG. 10B). All lesions identified at the fifth week that had not been previously detected at the second week of the experiment were counted and compared among treatment groups.

Data set [3] has as its system MDA-231 human breast cancer cells. In words: Model of tumor seeding: MDA-231 cells inoculated intracardially, DTCs in skeleton at 24 hours. The note with it: for seeding of the skeleton by MDA-231 breast cancer cells: SCID mice, i.p. one hour before and 3 hours after inoculation (Compound XXII 10 mg/kg); for reduction in DTCs vs vehicle: 24 hours.
Procedure: Female SCID mice (Taconic CB17-SCRF, ˜20 g body weight) were housed in a germfree barrier. At 6 weeks of age, mice were anesthetized with a mixture of ketamine (80 mg/kg) and xylazine (10 mg/kg). […] After intracardiac injection, the experimenter distributed each animal in unlabeled cages. Each cage was randomly assigned to different treatment groups by a second experimenter.
The dosing regimen was selected based on results from pharmacokinetic analyses. […] For the detection and enumeration of single cancer cells, the experimenter was not blinded but was assisted by the Nuance FX multiplex imaging software (see below). A fluorescence image was acquired for each tissue section analyzed, approximately 36 serial sections spanning the entire width of each knee-joint. The identification and enumeration of single cells was obtained by three different experimenters, including the Principal Investigator, and occasional discrepancies reconciled prior to compiling the final data.
Animal model of tumor seeding: SCID mice (Taconic CB17-SCRF, ˜25 g body weight) were housed in a germ-free barrier. At 6 weeks of age, mice were anesthetized with a mixture of ketamine (80 mg/kg) and xylazine (10 mg/kg). Tumor cells were delivered as a 100 μl suspension of serum-free culture medium by carefully accessing the left ventricle of the heart through the chest with an insulin syringe mounting a 30-gauge needle. […] Species- and class-matched irrelevant immunoglobulins (Rabbit IgG, 15 μg/ml, Jackson ImmunoResearch) or DMSO were used for the control groups. […] The dosing regimen was selected based on results from pharmacokinetic analyses. […] Blue-fluorescent beads, 10 μm-polystyrene in diameter (Invitrogen-Molecular Probes) were included in the injection medium and visualized by fluorescence microscopy to validate injection efficiency. Mice showing non-homogenous distribution of or lacking fluorescent beads in tissue sections of lungs and kidneys were removed from the study.
Soft-tissue organs were then placed either in 30% sucrose for cryoprotection or 1% paraformaldehyde for long-term storage. Bones were decalcified in 0.5M EDTA (Fisher Scientific) for 7 days followed by incubation in 30% sucrose. Tissues were maintained at 4° C. for all aforementioned steps and frozen in O.C.T. medium (Sakura Finetek) by placement over dry-ice chilled 2-methylbutane. Soft-tissue organs as well as knee joints (femora and tibiae) were processed to obtain serial frozen sections, 80 μm in thickness, using a Microm HM550 cryostat.
Fluorescent images of skeletal metastases were acquired using an Axio Scope.A1 microscope (Zeiss) connected to a Nuance Multispectral Imaging System (PerkinElmer). Digital images were analyzed and processed using the Nuance Software (v. 2.4). […]
In data set [4] the test system is MDA-231 cells. In words: Model of metastatic disease: one-week MDA-231 tumors, bioluminescence imaging. Type of data set: in vivo, mice. The protocol: (§1) One week after intracardiac injection, animals were randomly assigned to control and treated group and then imaged for tumors in the skeleton and soft-tissue organs. Vehicle or Compound XXII (10 mg/kg) were administered i.p. twice/day, for the entire duration of the study and animals were imaged weekly. Doxorubicin was purchased from LEK Laboratories (D5794), dissolved in PBS at 1 mg/ml and stored at −20° C. before use. All experiments were performed in agreement with NIH guidelines for the humane use of animals. The Drexel University College of Medicine Committee approved all protocols involving the use of animals for the Use and Care of Animals.
MDA-231 cells were stably transduced with the pLeGo-IG2-Luc2 vector. Prior to imaging, animals were injected i.p. with 150 mg/kg of D-luciferin (ViVoGlo, Promega) and anesthetized using 3% isoflurane. Animals were then transferred to the chamber of an IVIS Lumina XR (PerkinElmer) where they received 2% isoflurane throughout the image acquisition. Fifteen minutes after injection of the substrate, five-minute exposures of both dorsal and ventral views were obtained and quantification and analysis of bioluminescence was performed using the Living Image software.
To determine whether the pharmacologic targeting of CX3CR1 with Compound I would produce similar effects, mice were grafted with MDA-231 cells and at the first week post-IC injection were randomized and administered with either vehicle or 10 mg/Kg Compound I i.p. twice daily for three weeks, based on pharmacokinetics studies with this compound. Animals were imaged weekly before being euthanized, and treatment with Compound I led to a reduction in the number of tumor foci and overall tumor burden, at least as effectively as observed using CRISPRi (FIGS. 5A-5B).

A further data set in a line: in vivo. Conditions: mouse, ip, 10 mg/kg.
A short description of data set [5]: Pharmacokinetic studies in mice, 10 mg/kg i.p. The note with it: 1 hour, vs 10 nM.
Procedure: (§2) Animals were then anesthetized as described above and 300 μl of blood samples were collected by cardiac puncture at the designated time points and transferred in K2EDTA tubes. Blood samples were placed on ice and tested after dilution.
In data set [6] the test system is 4T-1 murine breast cancer cells. Nature of the data set: Model of tumor seeding: 4T-1 cells inoculated intracardially in Balb-C mice. The note with it: 10 mg/kg i.p. one hour before and 3 hours after inoculation. Type of data set: in vivo. The protocol: Mice were sacrificed 24 hours post-injection.
In data set [7] the test system is MDA-231 cells. Nature of the data set: Reseeding of CTCs to bone and lungs (GFP/CM-Dil double-labeled cells). Type of data set: in vivo, mice. The note with it: AMD-3100 with Compound XXII 10 mg/Kg i.p. 1 hr prior and 3 hrs after; 12 or 24 hours. Here is the method: The CellTracker™ CM-Dil (ThermoFisher Scientific) was diluted as 50 μg in 50 μl of DMSO to prepare a stock solution. Immediately before use, the stock solution was diluted with D-PBS to a 1 μM working solution. Cells were exposed to the working solution at 37° C. for 5 minutes and then at 4° C. for 15 minutes and then washed with PBS followed by F-12 cell culture medium.
Green-fluorescent MDA-231 cells were labeled with the cell-tracker CM-Dil, a widely validated red-fluorescent dye that, while being stably retained by non-dividing cells, is transferred to daughter cells upon mitosis and eventually becomes too diluted and undetectable in rapidly dividing cell populations. Based on these features, GFP/CM-Dil double-labeled cancer cells, when reseeding from established tumors would emit green fluorescence but lack red fluorescence, as the results of high proliferation during tumor growth and consequential dilution of the CM-Dil dye. Cancer cells that became dormant upon seeding different tissues following intracardiac injection would retain the CM-Dil dye, thereby emitting signals in both green and red fluorescent spectra (FIG. 9A). For these experiments, mice were grafted with double-labeled cancer cells in the left cardiac ventricle and allowed to develop tumors for two weeks. […]

In data set [8] the test system is disseminated tumors. Type of data set: in vivo. Here is the method: as §1
Mice harboring 1-week disseminated tumors were treated with the anthracycline antibiotic Doxorubicin (5 mg/Kg, i.p., q.w.), alone or in combination with Compound XXII (10 mg/Kg, i.p., b.i.d.) for the entire duration of the study. […] When the effects on both number of tumors and tumor burden were examined. […] It could be argued that this lack of effect shown by the chemotherapeutic drug was likely attributable to the short length of treatment, shorter than common protocols used in oncology practice. […] The acute toxicity of Doxorubicin precluded longer experiments. In order to test whether retaining cancer cells in the blood circulation by targeting CX3CR1 could extend their exposure to chemotherapeutics, the fluorescent properties of Doxorubicin were utilized and the red-spectrum emitted fluorescence of CTCs was collected at steady state from mice harboring disseminated tumors which were treated with Doxorubicin (alone, one hour after or three hours prior to administration of Compound XXII). CTCs were collected—independently of the type of treatment—four hours after Doxorubicin administration.

Data set [9] concerns disseminated tumors. In words: Docetaxel alone or with Compound XXII in animals bearing disseminated tumors. Type of data set: in vivo. The protocol:
Animals bearing disseminated tumors were treated with Docetaxel (2 mg/Kg, i.p., bis in 7 d.) either alone or in combination with Compound XXII (10 mg/Kg i.p., q12h) and compared to Compound XXII alone (FIGS. 11E-11G).

Where [10] appears, read: single dose 5 mg/kg, mice with 3-week tumors.
[11] abbreviates: 10 mg/kg i.p. twice/day from one week post-inoculation, vs vehicle.
Where [12] appears, read: Doxorubicin 5 mg/Kg q.w. in combination with Compound XXII 10 mg/Kg i.p. b.i.d.
Where [13] appears, read: Doxorubicin alone 5 mg/Kg i.p. q.w., two weeks.

Procedure for in vivo: as §2

`c1cc(CN2CCCNCCNCCCNCC2)ccc1CN1CCCNCCNCCCNCC1` [AMD-3100, reference compound]: the “area under the curve of CTC counts vs time” value in the data set on MDA-231 cells [1] (AMD-3100 alone) is given as 345. Besides, the “mobilization of cancer cells (CTCs) into the blood” value with MDA-231 cells [1] was “rapid increase in the number of CTCs”. In the data set on MDA-231 cells [1] (setting [10]), the “time of peak number of CTCs post-treatment” value was 3 h and the “time of return of CTCs to steady-state counts” value was 48 h. Besides, the “number of additional lesions vs untreated animals” value in the data set on disseminated tumors [2] (AMD-3100 alone at second and third week, lesions at fifth week) is listed as “doubled number of additional lesions”. Moreover, the “seeding of the skeleton by MDA-231 breast cancer cells” value in data set [3] is on record as “unaffected”.

On to `O=c1c2cccn2c2ccccc2n1CCCN1CCC(c2ccc(Cl)cc2)CC1` [Compound I, 5-(3-(4-(4-chlorophenyl)piperidin-1-yl)propyl)pyrrolo[1,2-a]quinoxalin-4(5H)-one], for which, in the data set with MDA-231 cells [4] (setting [11]), the “number of tumors (tumor foci)” value is listed as “reduction” and the overall tumor burden entry is recorded as “reduction”. Further, the concentration at 1 h in “in vivo” (in vivo) was 89 ng/mL and 210 nM. For the same compound, in data set [5], the “increase of blood level over lowest fully effective dose in vitro” value turned out to be 20 fold. Moreover, in data set [3] (10 mg/Kg i.p. twice, one hour prior and three hours after IC inoculation), the “reduction in DTCs vs vehicle” value is “approximately 60%”. Further, the “reduction in DTCs vs vehicle” value in data set [3] (MDA-231 cells pre-incubated with 10 nM compound) is “approximately 60%”.

As for `O=C1CN(CCCn2c(=O)c3cccn3c3ccccc32)CCN1c1ccc(Cl)cc1` [Compound XXII, 5-(3-(4-(4-chlorophenyl)-3-oxopiperazin-1-yl)propyl)pyrrolo[1,2-a]quinoxalin-4(5H)-one], the “seeding of the skeleton by 4T-1 breast cancer cells” value in data set [6] is “severely impaired”. Moreover, the “overall tumor burden, % of the levels in the control group” value in the data set on MDA-231 cells [4] (10 mg/kg i.p. twice/day from one week post-inoculation) was “below 50%”. In the data set with MDA-231 cells [4] (setting [11]), the “number of tumors (tumor foci)” value is reported as “strongly reduced” and the overall tumor burden result is listed as “strongly reduced”. The overall survival result with MDA-231 cells [4] (10 mg/kg i.p. twice/day, Kaplan-Meier, vs vehicle) is listed as “increase in overall survival”. The “area under the curve of CTC counts vs time” value with MDA-231 cells [1] (AMD-3100 combined with Compound XXII, then Compound XXII alone twice/day) is on record as 731. Further, the “percentage of apoptotic CTCs (Bax/Bcl-2 ratio) vs AMD-3100 alone” value with MDA-231 cells [1] (AMD-3100 in combination with Compound XXII, CTCs collected at 12 and 24 hours) is “increased the percentage of apoptotic CTCs”. Also, the “magnitude of increase in CTC counts vs AMD-3100 alone” value with MDA-231 cells [1] (Compound XXII co-administered with AMD-3100) is listed as “more than two-fold higher”. Besides, the “mobilization of cancer cells (CTCs) into the blood” value in the data set with MDA-231 cells [1] is “does not mobilize cancer cells back in the blood”. Moreover, the “number of reseeded cancer cells in lung and knee-joints” value with MDA-231 cells [7] is recorded as “dramatically reduced”. Also, in the data set on disseminated tumors [2] (AMD-3100 in combination with Compound XXII), the “AMD-3100-induced increase of additional lesions” value is “ablated”. Moreover, the “number of CTCs positive for intracellular Doxorubicin” value in the data set with disseminated tumors [8] (Compound XXII administered prior to Doxorubicin, CTCs collected four hours after Doxorubicin) is listed as “significant increase”. Besides, the “anti-tumor effect compared with Doxorubicin” value in the data set with disseminated tumors [8] (Compound XXII alone 10 mg/Kg i.p. b.i.d., short period of time) was “superior anti-tumor effect than Doxorubicin”. For the same compound, in the data set with disseminated tumors [8] (setting [12]), the “containment of tumor numbers” value was “comparable to Compound XXII alone” and the “mitigation of tumor burden” value is recorded as “comparable to Compound XXII alone”. Besides, in the data set on disseminated tumors [8] (Doxorubicin combined with Compound XXII), the “synergistic effects of combination” value is reported as “Synergistic effects were minimal”. In addition, the “tumor burden after one week of treatment vs Compound XXII alone” value in the data set with disseminated tumors [8] (Doxorubicin in combination with Compound XXII, 1 week) was “significantly superior effect”. Besides, the “overall efficacy for lowering total tumor burden” value in the data set on disseminated tumors [9] (Compound XXII alone 10 mg/Kg i.p. q12h, each time point) is on record as “comparable to the current standard of care, docetaxel alone”. Further, the “synergistic effects of combination” value in the data set with disseminated tumors [9] (Docetaxel with Compound XXII, especially after 11 days of treatment) is given as “Synergistic effects were observed”. In the data set “in vivo” (plasma), this compound yielded a concentration at 1 h of around 200 ng/mL and a concentration at 6 h of 60 ng/mL. Also, the “seeding of the skeleton by MDA-231 breast cancer cells” value in data set [3] is “severely impaired”.

`COc1cccc2c1C(=O)c1c(O)c3c(c(O)c1C2=O)C[C@@](O)(C(=O)CO)C[C@@H]3O[C@H]1C[C@H](N)[C@H](O)[C@H](C)O1` [Doxorubicin, reference compound]: in the data set on disseminated tumors [8] (setting [13]), the “number of tumors vs control” value is listed as “failed to show any significant effect” and the “tumor burden vs control” value was “failed to show any significant effect”.

Consider `CC(=O)O[C@@]12CO[C@@H]1C[C@H](O)[C@@]1(C)C(=O)[C@H](O)C3=C(C)[C@@H](OC(=O)[C@H](O)[C@@H](NC(=O)OC(C)(C)C)c4ccccc4)C[C@@](O)([C@@H](OC(=O)c4ccccc4)[C@H]21)C3(C)C` [docetaxel, reference compound], for which the tumor growth result in the data set on disseminated tumors [9] (docetaxel alone 2 mg/Kg i.p. bis in 7 d.) was “significantly suppressed tumor growth”.
